Results taken from patent publication US7378433B2, “N-[4-(heteroarylmethyl)phenyl]-heteroarylamines” (Janssen Pharmaceutica, N.V., priority 1996, dated 2008).

tested on: RA-metabolism in MCF-7 human breast cancer cells; assay: Inhibition of retinoic acid (RA) metabolism; format: cell-based; conditions: MCF7, concentration needed to reduce the amount of polar 3H-RA metabolites to 50% of the control, MCF-7 cells
Description: The property to delay the metabolism of retinoic acid can be evidenced in various in vitro and in vivo experiments. A particular in vitro procedure is described in example C.1 and tests the inhibitory activity of the compounds of formula (I) on the metabolism of retinoic acid in human breast cancer cells. The compounds of the present invention were also effective in suppressing induced vaginal keratinization effects in ovariectomized rats as is described in example C.2.
MCF-7 human breast cancer cells were grown as stock cultures according to art-known protocols. One day before the experiment, RA is added to the stock cultures to stimulate RA-metabolism. At the start of the experiment, cell suspensions were incubated in a tissue culture medium containing ^3H-RA as the substrate. Different concentrations of the test compound (dissolved in 1% DMSO) were added to the incubation mixtures, and at the end of the incubation, the unmetabolized RA is separated from its polar metabolites. The fraction containing the polar ^3H-labeled metabolites was collected and counted in a scintillation counter. For each experiment, a control and a blank incubation were run in parallel.

SMILES | IC50
CC(C)C(c1ccc(Nc2nccs2)cc1)n1ccnc1 (racemic) [Compound 51, (±)-N-[4-[1-(1H-imidazol-1-yl)-2-methylpropyl]phenyl]-2-thiazolamine] | < 10 nM
c1ccc2sc(Nc3ccc(Cn4ccnc4)cc3)nc2c1 [Compound 24, N-[4-(1H-imidazol-1-ylmethyl)-phenyl]-2-benzothiazolamine] | < 10 nM
CCC(CC)C(c1ccc(Nc2nc3ccccc3o2)cc1)n1cncn1 (centres unmarked) [Compound 56, N-[4-[2-ethyl-1-(1H-1,2,4-triazol-1-yl)butyl]phenyl]-2-benzoxazolamine] | < 10 nM

Results, then the compound that gave them:

IC50 | SMILES
< 10 nM | CCC(CC)C(c1ccc(Nc2nc3ccccc3s2)cc1)n1cncn1 (racemic) [Compound 25, (±)-N-[4-[2-ethyl-1-(1H-1,2,4-triazol-1-yl)butyl]phenyl]-2-benzothiazol-amine]
< 10 nM | Cc1csc(Nc2ccc(C(C(C)C)n3ccnc3)cc2)n1 (racemic) [Compound 50, (±)-N-[4-[1-(1H-imidazol-1-yl)-2-methylpropyl]phenyl]-4-methyl-2-thiazolamine]
